Measured values from paper PMC10935503 (Acta Pharmaceutica Sinica. B, 2023).

What was measured:
Format in all cases: cell-based
[1] = test system: HIV-1 K103N + Y181C (RES056); assay: microbe, parasite or virus in culture; conditions: for EC50: Human immunodeficiency virus 1, MT4, read-out: EC50 RES056; for RF RES056: resistance fold, EC50 (mutant strain)/EC50 (WT strain); for SI RES056: selectivity index, ratio of CC50/EC50
[2] = test system: HIV-1 WT strain (IIIB); assay: Anti-HIV-1 activity in MT-4 cells, MTT method, WT strain IIIB; conditions: for EC50: Human immunodeficiency virus 1, IIIB, MT4, read-out: EC50 IIIB
[3] = Cytotoxicity in mock-infected MT-4 cells, MTT method; conditions: human
[4] = test system: HIV-1 F227L + V106A; assay: microbe, parasite or virus in culture; conditions: for EC50: Human immunodeficiency virus 1, MT4, read-out: EC50 F227L + V106A; for RF F227L + V106A: resistance fold, EC50 (mutant strain)/EC50 (WT strain); for SI F227L + V106A: selectivity index, ratio of CC50/EC50
[5] = test system: HIV-1 L100I; assay: microbe, parasite or virus in culture; conditions: for EC50: Human immunodeficiency virus 1, MT4, read-out: EC50 L100I; for RF L100I: resistance fold, EC50 (mutant strain)/EC50 (WT strain); for SI L100I: selectivity index, ratio of CC50/EC50
[6] = test system: HIV-1 Y181C; assay: microbe, parasite or virus in culture; conditions: for EC50: Human immunodeficiency virus 1, MT4, read-out: EC50 Y181C; for RF Y181C: resistance fold, EC50 (mutant strain)/EC50 (WT strain); for SI Y181C: selectivity index, ratio of CC50/EC50
[7] = test system: HIV-1 Y188L; assay: microbe, parasite or virus in culture; conditions: for EC50: Human immunodeficiency virus 1, MT4, read-out: EC50 Y188L; for RF Y188L: resistance fold, EC50 (mutant strain)/EC50 (WT strain); for SI Y188L: selectivity index, ratio of CC50/EC50
[8] = test system: HIV-1 K103N; assay: microbe, parasite or virus in culture; conditions: for EC50: Human immunodeficiency virus 1, MT4, read-out: EC50 K103N; for RF K103N: resistance fold, EC50 (mutant strain)/EC50 (WT strain); for SI K103N: selectivity index, ratio of CC50/EC50
[9] = test system: HIV-1 E138K; assay: microbe, parasite or virus in culture; conditions: for EC50: Human immunodeficiency virus 1, MT4, read-out: EC50 E138K; for RF E138K: resistance fold, EC50 (mutant strain)/EC50 (WT strain); for SI E138K: selectivity index, ratio of CC50/EC50

Compound: Cc1cc(C#N)cc(C)c1Oc1nc(Nc2ccc(C#N)cc2)nc2c1[S+]([O-])CCC2 (stereo not shown) [16a, 4-((2-((4-Cyanophenyl)amino)-5-oxido-7,8-dihydro-6H-thiopyrano[3,2-d]pyrimidin-4-yl)oxy)-3,5-dimethylbenzonitrile]
- EC50 [1]: 0.445 ± 0.0957 µM
- EC50 [2]: 0.00799 ± 0.00095 µM
- CC50 at 5 days [3]: ≥ 19.7 µM

Compound: Cc1cc(C#N)cc(C)c1Oc1nc(N2CCN(Cc3ccc(S(N)(=O)=O)cc3)CC2)nc2c1SCCC2 [19a, 4-((4-(4-(4-Cyano-2,6-dimethylphenoxy)-7,8-dihydro-6H-thiopyrano[3,2-d]pyrimidin-2-yl)piperazin-1-yl)methyl)benzenesulfonamide]
- EC50 [2]: > 3.08 µM
- EC50 IIIB ([2]; MT-4 cells, MTT method, HIV-1 IIIB (WT)): lost potency
- CC50 at 5 days [3]: 19.3 ± 3.04 µM

Compound: Cc1cc(C#N)cc(C)c1Oc1nc(NCCn2ccc(=O)[nH]c2=O)nc2c1SCCC2 [20a, 4-((2-((2-(2,4-Dioxo-3,4-dihydropyrimidin-1(2H)-yl)ethyl)amino)-7,8-dihydro-6H-thiopyrano[3,2-d]pyrimidin-4-yl)oxy)-3,5-dimethylbenzonitrile]
- EC50 [1]: > 248 µM
- EC50 [2]: 0.233 ± 0.158 µM
- CC50 at 5 days [3]: > 284 µM

Compound: Cc1cc(/C=C/C#N)cc(C)c1Oc1nc(NCCn2ccc(=O)[nH]c2=O)nc2c1SCCC2 [20b, (E)-3-(4-((2-((2-(2,4-Dioxo-3,4-dihydropyrimidin-1(2H)-yl)ethyl)amino)-7,8-dihydro-6H-thiopyrano[3,2-d]pyrimidin-4-yl)oxy)-3,5-dimethylphenyl)acrylonitrile]
- EC50 [1]: 22.7 µM
- EC50 [2]: 0.02 ± 0.0198 µM
- CC50 at 5 days [3]: 142 ± 31.1 µM

Compound: Cc1cc(C)c(Oc2nc(NCCn3ccc(=O)[nH]c3=O)nc3c2SCCC3)c(C)c1 [20c, 1-(2-((4-(Mesityloxy)-7,8-dihydro-6H-thiopyrano[3,2-d]pyrimidin-2-yl)amino)ethyl)pyrimidine-2,4(1H,3H)-dione]
- EC50 [1]: > 152 µM
- EC50 [2]: 0.523 ± 0.466 µM
- CC50 at 5 days [3]: 152 ± 28.3 µM

Compound: Cc1cc(C#N)cc(C)c1Oc1nc(NC2CCN(Cc3ccc(C#N)cc3)CC2)nc2c1SCCC2 [23a, 4-((2-((1-(4-Cyanobenzyl)piperidin-4-yl)amino)-7,8-dihydro-6H-thiopyrano[3,2-d]pyrimidin-4-yl)oxy)-3,5-dimethylbenzonitrile]
- EC50 [1]: 0.263 ± 0.0971 µM
- EC50 [2]: 0.00444 ± 0.00139 µM
- CC50 at 5 days [3]: 3.76 ± 0.32 µM

Compound: Cc1cc(C#N)cc(C)c1Oc1nc(NC2CCN(Cc3ccccc3C#N)CC2)nc2c1SCCC2 [23c, 4-((2-((1-(2-Cyanobenzyl)piperidin-4-yl)amino)-7,8-dihydro-6H-thiopyrano[3,2-d]pyrimidin-4-yl)oxy)-3,5-dimethylbenzonitrile]
- EC50 [1]: 1.16 ± 0.184 µM
- EC50 [2]: 0.0071 ± 0.00269 µM
- CC50 at 5 days [3]: 3.86 ± 1.14 µM

Compound: Cc1cc(C#N)cc(C)c1Oc1nc(NC2CCN(Cc3cccc(S(N)(=O)=O)c3)CC2)nc2c1SCCC2 [23d, 3-((4-((4-(4-Cyano-2,6-dimethylphenoxy)-7,8-dihydro-6H-thiopyrano[3,2-d]pyrimidin-2-yl)amino)piperidin-1-yl)methyl)benzenesulfonamide]
- EC50 [1]: 0.79 ± 0.134 µM
- EC50 [2]: 0.00465 ± 0.00065 µM
- CC50 at 5 days [3]: 5.61 ± 3.42 µM

Compound: CCOC(=O)c1ccc(CN2CCC(Nc3nc4c(c(Oc5c(C)cc(C#N)cc5C)n3)SCCC4)CC2)cc1 [23e, Ethyl 4-((4-((4-(4-cyano-2,6-dimethylphenoxy)-7,8-dihydro-6H-thiopyrano[3,2-d]pyrimidin-2-yl)amino)piperidin-1-yl)methyl)benzoate]
- EC50 [1]: 4.83 ± 0.517 µM
- EC50 [2]: 0.0148 ± 0.0135 µM
- CC50 at 5 days [3]: 65.3 ± 39.8 µM

Compound: Cc1cc(C#N)cc(C)c1Oc1nc(NC2CCN(Cc3ccc(N)cc3)CC2)nc2c1SCCC2 [23f, 4-((2-((1-(4-Aminobenzyl)piperidin-4-yl)amino)-7,8-dihydro-6H-thiopyrano[3,2-d]pyrimidin-4-yl)oxy)-3,5-dimethylbenzonitrile]
- EC50 [4]: 0.184 ± 0.00833 µM
- RF F227L + V106A [4]: 26.3
- SI F227L + V106A [4]: 65
- EC50 [1]: 0.653 ± 0.236 µM
- RF RES056 [1]: 93.3
- SI RES056 [1]: 18
- EC50 [5]: 0.0556 ± 0.00268 µM
- RF L100I [5]: 7.9
- SI L100I [5]: 216
- EC50 [6]: 0.0147 ± 0.00117 µM
- RF Y181C [6]: 2.1
- SI Y181C [6]: 816
- EC50 [2]: 0.007 ± 0.00104 µM
- EC50 [7]: 0.0261 ± 0.00353 µM
- RF Y188L [7]: 3.7
- SI Y188L [7]: 460
- CC50 at 5 days [3]: 12 ± 6.47 µM
- EC50 [8]: 0.00869 µM
- RF K103N [8]: 1.2
- SI K103N [8]: 1381
- EC50 [9]: 0.0216 ± 0.00056 µM
- RF E138K [9]: 3.0
- SI E138K [9]: 556

Compound: Cc1cc(C#N)cc(C)c1Oc1nc(NC2CCN(Cc3ccc(NS(C)(=O)=O)cc3)CC2)nc2c1SCCC2 [23g, N-(4-((4-((4-(4-cyano-2,6-dimethylphenoxy)-7,8-dihydro-6H-thiopyrano[3,2-d]pyrimidin-2-yl)amino)piperidin-1-yl)methyl)phenyl)methanesulfonamide]
- EC50 [4]: 0.165 ± 0.0408 µM
- RF F227L + V106A [4]: 69.6
- SI F227L + V106A [4]: ≥ 23
- EC50 [1]: 0.326 ± 0.185 µM
- RF RES056 [1]: 138
- SI RES056 [1]: ≥ 12
- EC50 [5]: 0.028 ± 0.00538 µM
- RF L100I [5]: 11.8
- SI L100I [5]: ≥ 138
- EC50 [6]: ≤ 0.00829 µM
- RF Y181C [6]: ≤ 3.5
- SI Y181C [6]: ≥ 467
- EC50 [2]: 0.00237 ± 0.00198 µM
- EC50 [7]: 0.0127 ± 0.00299 µM
- RF Y188L [7]: 5.4
- SI Y188L [7]: ≥ 305
- CC50 at 5 days [3]: ≥ 3.87 µM
- EC50 [8]: 0.00459 ± 0.00045 µM
- RF K103N [8]: 1.9
- SI K103N [8]: ≥ 843
- EC50 [9]: 0.00866 ± 0.00054 µM
- RF E138K [9]: 3.7
- SI E138K [9]: ≥ 447

Compound: Cc1cc(C)c(Oc2nc(NC3CCN(Cc4ccc(S(N)(=O)=O)cc4)CC3)nc3c2SCCC3)c(C)c1 [23i, 4-((4-((4-(Mesityloxy)-7,8-dihydro-6H-thiopyrano[3,2-d]pyrimidin-2-yl)amino)piperidin-1-yl)methyl)benzenesulfonamide]
- EC50 [4]: 0.0647 ± 0.0133 µM
- RF F227L + V106A [4]: 11.9
- SI F227L + V106A [4]: ≥ 3493
- EC50 [1]: 0.442 ± 0.272 µM
- RF RES056 [1]: 81.4
- SI RES056 [1]: ≥ 511
- EC50 [5]: 0.0392 ± 0.00766 µM
- RF L100I [5]: 7.2
- SI L100I [5]: ≥ 5765
- EC50 [6]: 0.0357 ± 0.00575 µM
- RF Y181C [6]: 6.6
- SI Y181C [6]: ≥ 6331
- EC50 [2]: 0.00543 ± 0.0044 µM
- EC50 [7]: 0.043 ± 0.00026 µM
- RF Y188L [7]: 7.9
- SI Y188L [7]: ≥ 5256
- CC50 at 5 days [3]: ≥ 226 µM
- EC50 [8]: 0.00656 ± 0.00107 µM
- RF K103N [8]: 1.2
- SI K103N [8]: ≥ 34,451
- EC50 [9]: 0.0376 ± 0.00741 µM
- RF E138K [9]: 6.9
- SI E138K [9]: ≥ 6011

Compound: Cc1cc(C#N)cc(C)c1Oc1nc(NC2CCN(c3cccc(C(N)=O)c3)CC2)nc2c1SCCC2 [27b, 3-(4-((4-(4-Cyano-2,6-dimethylphenoxy)-7,8-dihydro-6H-thiopyrano[3,2-d]pyrimidin-2-yl)amino)piperidin-1-yl)benzamide]
- EC50 [4]: 0.111 ± 0.0114 µM
- RF F227L + V106A [4]: 29.5
- SI F227L + V106A [4]: 54
- EC50 [1]: 0.0245 ± 0.00811 µM
- RF RES056 [1]: 6.5
- SI RES056 [1]: 244
- EC50 [5]: 0.0133 ± 0.00679 µM
- RF L100I [5]: 3.5
- SI L100I [5]: 450
- EC50 [6]: 0.00787 ± 0.00184 µM
- RF Y181C [6]: 2.1
- SI Y181C [6]: 761
- EC50 [2]: 0.00376 ± 0.00229 µM
- EC50 [7]: 0.00714 ± 0.0015 µM
- RF Y188L [7]: 1.9
- SI Y188L [7]: 839
- CC50 at 5 days [3]: 5.99 ± 2.95 µM
- EC50 [8]: 0.00546 µM
- RF K103N [8]: 1.5
- SI K103N [8]: 1097
- EC50 [9]: 0.0171 ± 0.00442 µM
- RF E138K [9]: 4.5
- SI E138K [9]: 350

Compound: O=C1Nc2ccc(Cl)cc2[C@@](C#CC2CC2)(C(F)(F)F)O1 [EFV, efavirenz, reference compound]
- EC50 [4]: 0.0774 ± 0.0559 µM
- EC50 [1]: 0.114 ± 0.0556 µM
- EC50 [5]: 0.0574 ± 0.0459 µM
- EC50 [6]: 0.00494 ± 0.00175 µM
- EC50 [2]: 0.00267 ± 0.00173 µM
- EC50 [7]: 0.0932 ± 0.0589 µM
- CC50 at 5 days [3]: > 6.34 µM
- EC50 [8]: 0.0992 ± 0.0568 µM
- EC50 [9]: 0.00467 ± 0.00138 µM

Compound: Cc1cc(C#N)cc(C)c1Oc1nc(NCCN2CCOCC2)nc2c1SCCC2 [compound 20d, 3,5-Dimethyl-4-((2-((2-morpholinoethyl)amino)-7,8-dihydro-6H-thiopyrano[3,2-d]pyrimidin-4-yl)oxy)benzonitrile]
- EC50 [2]: 5.69 ± 4.76 µM
- CC50 at 5 days [3]: 20.5 ± 11.3 µM

Compound: Cc1cc(C#N)cc(C)c1Oc1nc(NC2CCN(Cc3cccc(C#N)c3)CC2)nc2c1SCCC2 [compound 23b, 4-((2-((1-(3-Cyanobenzyl)piperidin-4-yl)amino)-7,8-dihydro-6H-thiopyrano[3,2-d]pyrimidin-4-yl)oxy)-3,5-dimethylbenzonitrile]
- EC50 [1]: 0.764 ± 0.0861 µM
- EC50 [2]: 0.006 ± 0.00103 µM
- CC50 at 5 days [3]: 3.78 ± 0.63 µM

Compound: Cc1cc(C#N)cc(C)c1Oc1nc(NC2CCN(c3cccc(C#N)c3)CC2)nc2c1SCCC2 [compound 27a, 4-((2-((1-(3-Cyanophenyl)piperidin-4-yl)amino)-7,8-dihydro-6H-thiopyrano[3,2-d]pyrimidin-4-yl)oxy)-3,5-dimethylbenzonitrile]
- EC50 [1]: 0.836 ± 0.29 µM
- EC50 [2]: 0.0102 ± 0.00757 µM
- CC50 at 5 days [3]: 8.39 ± 5.22 µM
